Read-outs that look alike come from different tables or passages of the source.
Columns and labels:
serum proteins [1] = conditions: cited from earlier work; for % PB: marker molecules, training set from Goodman & Gilman 9th ed.
[2] = target: Human serum albumin (HSA) (Homo sapiens, UniProt P02768); conditions: site I warfarin site, site II benzodiazepines/NSAIDS site; cited from earlier work
serum proteins [3] = assay: Percent protein bound in serum (literature % PB data); conditions: binary class: highly protein bound (DTC) or not
Source text: Drugs may bind to a variety of components in the blood, including albumin, a1-acid glyciprotein (AAG), lipoproteins, immunoglobulins, sex hormone binding globulins, and erythrocytes. […] Some foreknowledge of the protein binding characteristics of a molecule would help provide a better estimate of the pharmacodynamics and pharmacokinetics of the molecule. […] In addition, hepatic extraction is directly proportional to fu. […] The maximum oral bioavailability is directly related to the hepatic extraction ratio, which is in part dependent upon the fu. Disease states causing significant drop in serum albumin, e.g. nephrotic syndrome, where serum albumin concentrations are halved, cause a corresponding 2-fold decrease in half-life for clofibrate.
Using the principles of predictive model development described herein, a model for classifying compounds as highly protein bound (>90% bound) or not highly protein bound (<90% bound) was created. The model development methods are thus described below using a protein binding model as one example application. The model development methods of the invention may also be applied to the creation of other prediction models, such as models to predict CYP450 metabolism, inhibition, and activation, as well as p-Glycoprotein efflux.
The method next advances to the process block 14 where a reference (“training”) set of molecules is classified according to the property of interest. The larger the training set of molecules is (>50 preferably), the better the method should perform. Preferably each of the molecules in the training set has a known binary classification for the property of interest. […] For illustration, an example training set of ten molecules for a protein binding prediction model may be as follows:
The method next advances to a process block 16, where a subset of the training set of molecules is chosen such that the subset includes the molecules in the training set that have the desired property of interest. In one embodiment, molecules in this subset are referred to as Desired Target Class (“DTC”) molecules.
The above simplified example includes 10 training dataset molecules. […] The following compounds were excluded because they lacked % PB values or belonged to an unusual structural class: atracurium, auranofin, azathioprine, bleomycin, bretylium, busulfan, capreomycin, carboplatin, carmustine, cisplatin, clemastine, dobutamine, enoxacin, ethanol, foscarnet, gold sodium thiomalate, isosorbide-5-mononitrate, isosorbide dinitrate, levodopa, levonorgestrel, methohexital, methylprednisolone, nalbuphine, naloxone, neostigmine, nitroglycerin, pancuronium, pipecuronium, prednisolone, prednisone, pyridostigmine, scopolamine, tubocurarine, vecuronium.
A test dataset was also assembled to verify model performance.

[4] = nephrotic syndrome, serum albumin concentrations halved; cited from earlier work
[5] = example training set of ten molecules
[6] = training set (Goodman & Gilman) or PDR test set

Sequence of Human serum albumin (HSA) (P02768 25-609): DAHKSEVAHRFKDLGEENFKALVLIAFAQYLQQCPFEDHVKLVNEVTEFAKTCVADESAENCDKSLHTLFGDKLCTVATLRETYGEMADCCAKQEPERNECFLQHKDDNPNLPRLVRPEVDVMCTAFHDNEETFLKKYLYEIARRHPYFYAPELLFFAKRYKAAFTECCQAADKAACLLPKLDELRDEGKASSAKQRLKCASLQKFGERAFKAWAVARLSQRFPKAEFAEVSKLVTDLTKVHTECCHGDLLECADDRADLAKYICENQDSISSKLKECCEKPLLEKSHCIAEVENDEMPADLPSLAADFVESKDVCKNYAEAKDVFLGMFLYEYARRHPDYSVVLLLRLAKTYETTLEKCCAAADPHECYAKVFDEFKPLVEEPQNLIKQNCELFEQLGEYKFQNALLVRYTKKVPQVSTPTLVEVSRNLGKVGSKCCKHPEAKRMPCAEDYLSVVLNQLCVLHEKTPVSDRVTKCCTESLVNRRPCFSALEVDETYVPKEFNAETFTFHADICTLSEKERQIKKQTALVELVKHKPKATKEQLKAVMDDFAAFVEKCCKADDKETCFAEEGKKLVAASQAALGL

Structure (SMILES) | % PB (serum proteins [1]) | further results
O=C1CN=C(c2ccccc2)c2cc(Cl)ccc2N1CC1CC1 [PRAZEPAM] | 95.5% | –
CCCCNc1cc(C(=O)O)cc(S(N)(=O)=O)c1Oc1ccccc1 [BUMETANIDE] | 99% | –
COc1ccc(Cl)cc1C(=O)NCCc1ccc(S(=O)(=O)NC(=O)NC2CCCCC2)cc1 [GLYBURIDE] | 99.8% | –
Cc1ccc(C(=O)c2ccc(CC(=O)O)n2C)cc1 [TOLMETIN] | 99.6% | –
CCN(CC)CCN1C(=O)CN=C(c2ccccc2F)c2cc(Cl)ccc21 [FLURAZEPAM] | 96.6% | –
CCOC(=O)C1=C(C)NC(C)=C(C(=O)OC)C1c1cccc(Cl)c1Cl (stereo not shown) [FELODIPINE] | 99.6% | –
CNCCCC1c2ccccc2C=Cc2ccccc21 [PROTRIPTYLINE] | 92% | –
COc1ccc2cc(CCC(C)=O)ccc2c1 [NABUMETONE] | 99% | –
CCOC(=O)[C@H](CCc1ccccc1)N[C@H]1CCc2ccccc2N(CC(=O)O)C1=O [BENAZEPRIL] | 97% | –
CCc1cccc2c3c([nH]c12)C(CC)(CC(=O)O)OCC3 (stereo not shown) [ETODOLAC] | 99.1% | –
O=C1CN=C(c2ccccc2)c2cc(Cl)ccc2N1 [NORDAZEPAM] | 97.5% | –
CCOC(=O)C1=C(COCCN)NC(C)=C(C(=O)OC)C1c1ccccc1Cl (stereo not shown) [AMLODIPINE] | 93% | –
O=C1Nc2ccc(Cl)cc2C(c2ccccc2)=NC1O (stereo not shown) [OXAZEPAM] | 98.8% | –
COC(=O)C(C)c1ccc(C(=O)c2cccs2)cc1 (stereo not shown) [suprofen methyl ester] | – | HSA binding site [2]: binds to HSA site I
O=C1Nc2ccc(Cl)cc2C(c2ccccc2Cl)=NC1O (stereo not shown) [LORAZEPAM] | 91% | –
CCCC(CCC)C(=O)O [Valproic acid] | – | HSA binding site [2]: bind to both HSA Sites I and II
Clc1cccc(Cl)c1N=C1NCCN1 [CLONIDINE] | – | Classification (serum proteins [3]): 0 (not highly protein bound (<90% bound)); % Protein Bound (serum proteins [1]; [5]): 30.0%
CC(C(=O)O)c1ccc(-c2ccccc2)c(F)c1 (stereo not shown) [FLURBIPROFEN] | 99.5% | Classification (serum proteins [3]): 1 (highly protein bound (>90% bound)); % Protein Bound (serum proteins [1]; [5]): 99.5%
COC(=O)C1=C(C)NC(C)=C(C(=O)OC(C)C)C1c1cccc2nonc12 (stereo not shown) [ISRADIPINE] | 97% | –
COc1ccc2cc([C@H](C)C(=O)O)ccc2c1 [NAPROXEN] | – | Classification (serum proteins [3]): 1 (highly protein bound (>90% bound))
COC(=O)[C@H](c1ccccc1Cl)N1CCc2sccc2C1 [clopidogrel] | – | % Protein Bound (serum proteins [1]; [6]): 98%
CCC(C)n1ncn(-c2ccc(N3CCN(c4ccc(OCC5COC(Cn6cncn6)(c6ccc(Cl)cc6Cl)O5)cc4)CC3)cc2)c1=O (stereo not shown) [ITRACONAZOLE] | 99.8% | –
O=C(O)C1N=C(c2ccccc2)c2cc(Cl)ccc2NC1=O (stereo not shown) [CLORAZEPATE] | 96.9% | –
CN(C)CCCN1c2ccccc2CCc2ccccc21 [IMIPRAMINE] | 90.1% | –

Structure (SMILES) | % PB (serum proteins [1]) | further results
CN(C)c1ccc(O)c2c1C[C@H]1C[C@H]3[C@H](N(C)C)C(O)=C(C(N)=O)C(=O)[C@@]3(O)C(O)=C1C2=O [MINOCYCLINE] | – | Classification (serum proteins [3]): 0 (not highly protein bound (<90% bound)); % Protein Bound (serum proteins [1]; [5]): 76.0%
O=C(c1ccccc1)c1ccc2n1CCC2C(=O)O (stereo not shown) [KETOROLAC] | 99.2% | –
O=C(O)c1cc(-c2ccc(F)cc2F)ccc1O [DIFLUNISAL] | 99.9% | –
Cc1cnc(C(=O)NCCc2ccc(S(=O)(=O)NC(=O)NC3CCCCC3)cc2)cn1 [GLIPIZIDE] | 98.4% | –
CCc1nc(N)nc(N)c1-c1ccc(Cl)cc1 [PYRIMETHAMINE] | – | Classification (serum proteins [3]): 0 (not highly protein bound (<90% bound)); % Protein Bound (serum proteins [1]; [5]): 87.0%; % Protein Bound (serum proteins [1]; [6]): 87%
Fc1ccc([C@@H]2CCNC[C@H]2COc2ccc3c(c2)OCO3)cc1 [PAROXETINE] | 95% | % Protein Bound (serum proteins [1]; [6]): 95%
O=c1[nH]c2ccccc2n1C1CCN(CCCC(c2ccc(F)cc2)c2ccc(F)cc2)CC1 [PIMOZIDE] | 99% | –
CN1C(=O)CN=C(c2ccccc2)c2cc(Cl)ccc21 [DIAZEPAM] | – | Classification (serum proteins [3]): 1 (highly protein bound (>90% bound))
CC(=O)CC(c1ccccc1)c1c(O)c2ccccc2oc1=O (stereo not shown) [WARFARIN] | – | Classification (serum proteins [3]): 1 (highly protein bound (>90% bound))
CC(=O)N1CCN(c2ccc(OCC3COC(Cn4ccnc4)(c4ccc(Cl)cc4Cl)O3)cc2)CC1 (stereo not shown) [KETOCONAZOLE] | 99% | –
CCOC(=O)C1=C(C)NC(C)=C(C(=O)OC)C1c1cccc([N+](=O)[O-])c1 (stereo not shown) [NITRENDIPINE] | 98% | –
Cc1ccc(-c2nc3ccc(C)cn3c2CC(=O)N(C)C)cc1 [ZOLPIDEM] | 92% | –
NCCCC[C@H](N[C@@H](CCc1ccccc1)C(=O)O)C(=O)N1CCC[C@H]1C(=O)O [LISINOPRIL] | – | Classification (serum proteins [3]): 0 (not highly protein bound (<90% bound))
CN1C(=O)C(O)N=C(c2ccccc2)c2cc(Cl)ccc21 (stereo not shown) [TEMAZEPAM] | 97.6% | –
COC(=O)C1=C(C)NC(C)=C(C(=O)OCCN(C)Cc2ccccc2)C1c1cccc([N+](=O)[O-])c1 (stereo not shown) [NICARDIPINE] | 99% | –
NS(=O)(=O)c1cc2c(cc1Cl)NCNS2(=O)=O [HYDROCHLOROTHIAZIDE] | – | Classification (serum proteins [3]): 0 (not highly protein bound (<90% bound)); % Protein Bound (serum proteins [1]; [5]): 58.0%
CC1=C(CC(=O)O)c2cc(F)ccc2/C1=C\c1ccc([S+](C)[O-])cc1 (stereo not shown) | 94% | –
CC(N)C12CC3CC(CC(C3)C1)C2 (stereo not shown) [RIMANTADINE] | – | Classification (serum proteins [3]): 0 (not highly protein bound (<90% bound)); % Protein Bound (serum proteins [1]; [5]): 40.0%
COCCOC(=O)C1=C(C)NC(C)=C(C(=O)OC(C)C)C1c1cccc([N+](=O)[O-])c1 (stereo not shown) [NIMODIPINE] | 98% | –
CC(C(=O)O)c1ccc(C(=O)c2cccs2)cc1 (stereo not shown) [Suprofen] | – | HSA binding site [2]: binds to HSA site II
CN1C(C(=O)Nc2ccccn2)=C(O)c2ccccc2S1(=O)=O [PIROXICAM] | 98.5% | –
O=c1n(CCCN2CCN(c3cccc(Cl)c3)CC2)nc2ccccn12 [TRAZODONE] | 93% | –
NS(=O)(=O)c1cc(C(=O)O)c(NCc2ccco2)cc1Cl [FUROSEMIDE] | 98.8% | –
CCOC(=O)C(C)(C)Oc1ccc(Cl)cc1 [CLOFIBRATE] | 96.5% | decrease in half-life [4]: 2 fold

— patent publication US7146278B2, “Method of selecting marker molecules for prediction of molecular activity” (Accelrys Software Inc., priority 2001, dated 2006)
